Assay results as given in patent US4665019A, “Method for measuring the plasma levels of an inhibitor of (Na^+ +K^ +” (University of Maryland, priority 1983, dated 1987).

Legend:
[1] = target: T1, canine kidney (Na^+ +K^+)ATPase (Canis lupus familiaris, UniProt P50997); test: (Na+ +K+)ATPase activity assay coupled to NADH oxidation (A340); type: biochemical, canine (dog); conditions: for time course of inhibition of (Na^+ +K^+)ATPase activity: FIG. 1a/1b, continuous recording of A340, 37° C.
T1 construct: suspending canine kidney (Na^+ +K^+)ATPase; purchased Sigma Chemical; host or cells: canine kidney (tissue-derived membrane preparation)
Description: The (Na^+ +K^+)ATPase preparation employed in the assay of this example comprised unsealed membrane sheets as described in Jorgensen, P. L. Biochim. Biophys. Acta 356: 36-52 (1974). Thus, it was not able to distinguish between an external and an internal site of action for the inhibitor.
The ATPase assay solution employed contained 400 μl of an ATPase cocktail and 580 μl of water. The ATPase cocktail was such that the final reaction conditions were (in 1.0 ml) as follows: 20 mM KCl; 100 mM NaCl; 4.5 mM MgSO4; 5 mM EGTA; 3 mM Na2 ATP; 1.2 mM tricyclohexylammonium phosphoenolpyruvate (PEP), 0.25 NADH, 40 mM trimethylaminoethanesulphonic acid (TES)-Tris, pH 7.4; 1.2 units lactate dehydrogenase (LDH); and 1.2 units pyruvate kinase (PK), (ATP, PEP, NADH, LDH and PK were purchased from Boehringer Mannheim Biochemicals; LDG and PK enzymes were obtained as glycerol suspensions.)
The (Na^+ +K^+)ATPase suspension was prepared for assay by suspending canine kidney (Na^+ +K^+)ATPase (obtained from Sigma Chemical having a specific activity of 5-6 μmol per min per mg protein and containing a ouabain-insensitive Mg^2+ -ATPase activity which was less than 2% of the total steady-state ATPase activity) in 500 μM Na4 EDTA, 10 mM (TES)-Tris pH 7.4, at a protein concentration of 150 μg/ml. The resuspended enzyme was incubated at 25° C. for 3 hours and then stored on ice.
The assay was initiated by the rapid addition of 20 μl of ATPase suspension (3 μg protein) to 980 μl of ATPase assay solution in a 1.0 ml cuvette at 37° C. The decrease in ultraviolet light absorbance at 340 nm (A340) due to NADH oxidation (ε=6.22×10^3 1 mol^-1 cm^-1) was continuously recorded using a Beckman Model 25 UV-VIS recording spectrophotometer.
FIG. 1a illustrates ATPase inhibition by ouabain. […] The control contained an appropriate quantity of DMSO.
FIG. 1b illustrates ATPase inhibition by vanadate. […] The control contained in appropriate quantity of water. […]
Percent inhibition was calculated as: [formula]

[2] = test system: ATP generating reaction system; test: Efficacy of the ATP generating reaction system (rates of NADH oxidation on addition of ADP); type: biochemical; conditions: at the concentrations shown in FIGS. 1a and 1b; addition of 10-50 μM ADP

Row | SMILES | time course of inhibition of (Na^+ +K^+)ATPase activity [1] | effect on the efficacy of the ATP generating reaction system [2] | Ki ([1]; from steady-state levels of (Na^+ +K^+)ATPase activity at various vanadate concentrations, 37° C.) [nM]
1 | C[C@@H]1O[C@@H](O[C@H]2C[C@@H](O)[C@]3(CO)[C@H]4[C@H](O)C[C@]5(C)[C@@H](C6=CC(=O)OC6)CC[C@]5(O)[C@@H]4CC[C@]3(O)C2)[C@H](O)[C@H](O)[C@H]1O [ouabain] | no significant effect on the reaction for the first 30 seconds, and thereafter causes a progressive, dose-dependent increase in inhibition | Neither ouabain nor vanadate, at the concentrations shown in FIGS. 1a and 1b, had a significant effect | –
2 | [Na+].[Na+].[Na+].[O]=[V]([O-])([O-])[O-] [vanadate, Na3 VO4] | the effect of vanadate was apparent in the first few seconds of the reaction | Neither ouabain nor vanadate, at the concentrations shown in FIGS. 1a and 1b, had a significant effect | 900
